According to patent publication US10696692B2, “Amido-benzyl sulfone and sulfoxide derivates” (Forma TM, LLC, priority 2012, dated 2020):
Read-outs that look alike come from different tables or passages of the source.

Tests used:
A2780 cells = test: Assay 2: In-Vitro Cell Proliferation Assay (A2780 cells, SRB readout, 72 hours); assay type: cell-based; settings: A2780 cells, 72 hours, SRB, read-out: Cell Proliferation (IC50);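 note: viable cells counted via sulforhodamine B staining, absorbance at 570 nm, after 72 h exposure at 37 °C, DMSO 0.1% as control, media-only background subtracted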
NAMPT = NAMPT (Homo sapiens (Human), UniProt P43490); test: Assay 1: Biochemical Inhibition Assay (NAMPT enzymatic reaction, NMN quantified by mass spectrometry); settings: read-out: Biochemical (IC50);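 note: recombinant His-tagged human NAMPT preincubated with compound 15 min, then reacted 30 min at rt with 1 µM NAM, 100 µM PRPP, 2.5 mM ATP, NMN product read by RapidFire MS, normalized to L-Cystathionine internal standard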
Chain of NAMPT (P43490 whole entry): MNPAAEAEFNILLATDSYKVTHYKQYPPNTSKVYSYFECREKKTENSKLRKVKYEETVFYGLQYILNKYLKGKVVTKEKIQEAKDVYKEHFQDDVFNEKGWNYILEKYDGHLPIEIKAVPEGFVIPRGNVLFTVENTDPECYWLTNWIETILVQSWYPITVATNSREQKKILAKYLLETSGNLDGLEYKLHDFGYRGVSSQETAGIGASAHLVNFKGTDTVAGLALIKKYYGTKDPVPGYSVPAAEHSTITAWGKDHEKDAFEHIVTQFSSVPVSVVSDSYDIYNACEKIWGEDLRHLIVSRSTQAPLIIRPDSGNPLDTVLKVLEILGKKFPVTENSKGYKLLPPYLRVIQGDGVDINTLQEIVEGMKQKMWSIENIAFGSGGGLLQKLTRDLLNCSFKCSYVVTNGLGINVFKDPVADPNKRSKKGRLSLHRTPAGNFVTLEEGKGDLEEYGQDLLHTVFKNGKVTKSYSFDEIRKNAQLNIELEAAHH

Compound	IC50 (A2780 cells; Homo sapiens, A2780, 72 h)	IC50 (NAMPT)	IC50 (A2780 cells)
CS(=O)(=O)N1CCC(S(=O)(=O)c2ccc(CNC(=O)c3cnc4[nH]ncc4c3)cc2)C1 (stereo not shown) [Example 354, N-[[4-(1-methylsulfonylpyrrolidin-3-yl)sulfonylphenyl]methyl]-1H-pyrazolo[3,4-b]pyridine-5-carboxamide]	726 nM	413 nM	
O=C(NCc1ccc([S+]([O-])C2CCN(CC(F)(F)F)CC2)cc1)c1cc2ccncc2o1 (stereo not shown) [Example 356, N-[[4-[[1-(2,2,2-trifluoroethyl)-4-piperidyl]sulfinyl]phenyl]methyl]furo[2,3-c]pyridine-2-carboxamide]	3.25 nM	13.5 nM	
CCCN1CCC([S+]([O-])c2ccc(CNC(=O)c3cc4ccncc4o3)cc2)CC1 (stereo not shown) [Example 358, N-[[4-[(1-propyl-4-piperidyl)sulfinyl]phenyl]methyl]furo[2,3-c]pyridine-2-carboxamide]		19.3 nM	4.58 nM
CC(C)N1CCC([S+]([O-])c2ccc(CNC(=O)c3ccc4nccn4c3)cc2)CC1 (stereo not shown) [Example 362, N-[[4-[(1-isopropyl-4-piperidyl)sulfinyl]phenyl]methyl]imidazo[1,2-a]pyridine-6-carboxamide]	22.1 nM	35 nM	
CC(C)N1CCC([S+]([O-])c2ccc(CNC(=O)N3Cc4ccncc4C3)cc2)CC1 (stereo not shown) [Example 363, N-[[4-[(1-isopropyl-4-piperidyl)sulfinyl]phenyl]methyl]-1,3-dihydropyrrolo[3,4-c]pyridine-2-carboxamide]	45.6 nM	53.7 nM	
O=C(NCc1ccc([S+]([O-])C2CCN(CC(F)(F)F)CC2)cc1)c1ccc2nccn2c1 (stereo not shown) [Example 364, N-[[4-[[1-(2,2,2-tnfluoroethyl)-4-piperidyl]sulfinyl]phenyl]methyl]imidazo[1,2-a]pyridine-6-carboxamide]	3.51 nM	2.93 nM	
O=C(NCc1ccc([S+]([O-])C2CCN(C3CCOCC3)CC2)cc1)N1Cc2ccncc2C1 (stereo not shown) [Example 365, N-[[4-[(1-tetrahydropyran-4-yl-4-piperidyl)sulfinyl]phenyl]methyl]-1,3-dihydropyrrolo[3,4-c]pyridine-2-carboxamide]	20 nM	2.02 nM	
CC(C)N1CCC([S+]([O-])c2ccc(CNC(=O)c3cnc4[nH]ncc4c3)cc2)CC1 (stereo not shown) [Example 366, N-[[4-[(1-isopropyl-4-piperidyl)sulfinyl]phenyl]methyl]-1H-pyrazolo[3,4-b]pyridine-5-carboxamide]	77.6 nM	29 nM	
O=C(NCc1ccc([S+]([O-])C2CCN(CC(F)(F)F)CC2)cc1)c1cnc2[nH]ncc2c1 (stereo not shown) [Example 367, N-[[4-[[1-(2,2,2-trifluoroethyl)-4-piperidyl)sulfinyl]phenyl]methyl]-1H-pyrazolo[3,4-b]pyridine-5-carboxamide]	15 nM	88.1 nM	
CN1CCC([S+]([O-])c2ccc(CNC(=O)c3ccc4nccn4c3)cc2)CC1 (stereo not shown) [Example 371, N-[[4-[(1-methyl-4-piperidyl)sulfinyl]phenyl]methyl]imidazo[1,2-a]pyridine-6-carboxamide]	12.4 nM	38 nM	
CN1CCC([S+]([O-])c2ccc(CNC(=O)N3Cc4ccncc4C3)cc2)CC1 (stereo not shown) [Example 372, N-[[4-[(1-methyl-4-piperidyl)sulfinyl]phenyl]methyl]-1,3-dihydropyrrolo[3,4-c]pyridine-2-carboxamide]	61.2 nM	57.6 nM	
CCN1CCC([S+]([O-])c2ccc(CNC(=O)c3cnc4[nH]ncc4c3)cc2)CC1 (stereo not shown) [Example 373, N-[[4-[(1-ethyl-4-piperidyl)sulfinyl]phenyl]methyl]-1H-pyrazolo[3,4-b]pyridine-5-carboxamide]	15.4 nM	113 nM	
CC(C)CN1CCC([S+]([O-])c2ccc(CNC(=O)N3Cc4ccncc4C3)cc2)CC1 (stereo not shown) [Example 374, N-[(4-[(1-isobutyl-4-piperidyl)sulfinyl]phenyl]methyl]-1,3-dihydropyrrolo[3,4-c]pyridine-2-carboxamide]	2.83 nM	15.2 nM	
CCCN1CCC([S+]([O-])c2ccc(CNC(=O)c3ccc4nccn4c3)cc2)CC1 (stereo not shown) [Example 375, N-[[4-[(1-propyl-4-piperidyl)sulfinyl]phenyl]methyl)imidazo[1,2-a]pyridine-6-carboxamide]	24.5 nM	27.5 nM	
O=C(NCc1ccc([S+]([O-])C2CCN(CC(F)(F)F)CC2)cc1)N1Cc2ccncc2C1 (stereo not shown) [Example 376, N-[[4-[[1-(2,2,2-tnfluoroethyl)-4-piperidyl]sulfinyl]phenyl]methyl]-1,3-dihydropyrrolo[3,4-c]pyridine-2-carboxamide]	8.54 nM	5.82 nM	
CCCN1CCC([S+]([O-])c2ccc(CNC(=O)N3Cc4ccncc4C3)cc2)CC1 (stereo not shown) [Example 377, N-[[4-[(1-propyl-4-piperidyl)sulfinyl]phenyl]methyl]-1,3-dihydropyrrolo[3,4-c]pyridine-2-carboxamide]	24.1 nM	24.9 nM	
CCCN1CCC([S+]([O-])c2ccc(CNC(=O)c3cnc4[nH]ncc4c3)cc2)CC1 (stereo not shown) [Example 378, N-[[4-[(1-propyl-4-piperidyl)sulfinyl]phenyl]methyl)-1H-pyrazolo[3,4-b]pyridine-5-carboxamide]	143 nM	594 nM	
CN1CCC([S+]([O-])c2ccc(CNC(=O)c3cc4ccncc4o3)cc2)CC1 (stereo not shown) [Example 379, N-[[4-[(1-methyl-4-piperidyl)sulfinyl]phenyl]methyl]furo[2,3-c]pyridine-2-carboxamide]	41.4 nM	114 nM	
CCN1CCC([S+]([O-])c2ccc(CNC(=O)c3cc4ccncc4o3)cc2)CC1 (stereo not shown) [Example 380, N-[[4-[(1-ethyl-4-piperidyl)sulfinyl]phenyl]methyl]furo[2,3-c]pyridine-2-carboxamide]	499 nM	68.3 nM	
O=C(NCc1ccc([S+]([O-])C2CCN(C3CCOCC3)CC2)cc1)c1cnc2[nH]ncc2c1 (stereo not shown) [Example 381, N-[[4-[(1-tetrahydropyran-4-yl-4-piperidyl)sulfinyl]phenyl]methyl]-1H-pyrazolo[3,4-b]pyridine-5-carboxamide]	201 nM	290 nM	
CCCN1CCC([S+]([O-])c2ccc(CNC(=O)c3cc4ccncc4o3)cc2)CC1 (stereo not shown) [Example 382, N-[[4-[(1-propyl-4-piperidyl)sulfinyl]phenyl]methyl]furo[2,3-c]pyridine-2-carboxamide]		2000 nM	2000 nM
CCCN1CCC([S@+]([O-])c2ccc(CNC(=O)c3cc4ccncc4o3)cc2)CC1 [Example 383, N-[[4-[(S)-(1-propyl-4-piperidyl)sulfinyl]phenyl]methyl]furo[2,3-c]pyridine-2-carboxamide]		35.7 nM	6.46 nM
O=C(NCc1ccc([S+]([O-])C2CCN(C3CCOCC3)CC2)cc1)c1ccc2nccn2c1 (stereo not shown) [Example 384, N-[[4-[(1-tetrahydropyran-4-yl-4-piperidyl)sulfinyl]phenyl]methyl]imidazo[1,2-a] pyridine-6-carboxamide]	39.1 nM	36.2 nM	
CCN1CCC([S+]([O-])c2ccc(CNC(=O)N3Cc4ccncc4C3)cc2)CC1 (stereo not shown) [Example 385, N-[[4-[(1-ethyl-4-piperidyl)sulfinyl]phenyl]methyl]-1,3-dihydropyrrolo[3,4-c]pyridine-2-carboxamide]	56.7 nM	30.2 nM	
CC(C)N1CCC([S+]([O-])c2ccc(CNC(=O)c3cc4cnccc4[nH]3)cc2)CC1 (stereo not shown) [Example 386, N-[[4-[(1-isopropyl-4-piperidyl)sulfinyl]phenyl]methyl]-1H-pyrrolo[3,2-c]pyridine-2-carboxamide]	70.6 nM	60 nM	
Imidazo[1,2-a]pyridine-6- carboxylic acid 4-[4- (tetrahydro-pyran-4-yl)- piperazine-1-sulfonyl]- benzylamide [Example 59]		10.7 nM	3 nM
cis-Imidazo[1,2- a]pyridine-6-carboxylic acid 4-[(3aR,6aS)- (tetrahydro-furo[3,4- c]pyrrol-5-yl)sulfonyl]- benzylamide [Example 71]		16.7 nM	6.4 nM
tert-butyl 2-[4-[(imidazo[1,2- a]pyridine-6- carbonylamino)methyl]phenyl] sulfonyl-2,9- diazaspiro[4.5]decane-9- carboxylate [Example 242]		6.34 nM	2.99 nM
tert-butyl 7-[4-[(imidazo[1,2- a]pyridine-6- carbonylamino)methyl]phenyl] sulfonyl-1,7- diazaspiro[4.4]nonane-1- carboxylate [Example 236]		13.3 nM	1.79 nM
